The text below walks through data of PMC10745768, “Stereoselective Synthesis and Antiproliferative Activity of Steviol-Based Diterpene 1,3-Aminoalcohol Regioisomers” (Molecules, 2023).

For data set [1], the system named is NIH/3T3 fibroblast cells. On the set-up: method as in earlier work. The note with it: ref 24 (Bai D, Int J Mol Sci 2023, 10.3390/ijms24021121), cited from earlier work.
The subject of data set [2] is A2780 cells. Further details: method as in earlier work. The note with it: ref 24 (Bai D, Int J Mol Sci 2023, 10.3390/ijms24021121), cited from earlier work.
Data set [3] deals with HeLa cells. On the set-up: method as in earlier work. As to conditions: ref 24 (Bai D, Int J Mol Sci 2023, 10.3390/ijms24021121), cited from earlier work.
In data set [4] the test system is MCF-7 cells. On the set-up: method as in earlier work. As to conditions: ref 24 (Bai D, Int J Mol Sci 2023, 10.3390/ijms24021121), cited from earlier work.
Data set [5] concerns SiHa cells. On the set-up: method as in earlier work. The note with it: ref 24 (Bai D, Int J Mol Sci 2023, 10.3390/ijms24021121), cited from earlier work.
In data set [6] the test system is MDA-MB-231 cells. Further details: method as in earlier work. The note with it: ref 24 (Bai D, Int J Mol Sci 2023, 10.3390/ijms24021121), cited from earlier work.
For data set [7], the system named is human cancer cell lines (HeLa, SiHa, MCF-7, MDA-MB-231, A2780). As to the kind of experiment: MTT antiproliferative assay, panel of malignant cells. Format: cell-based. The note with it: for antiproliferative action at higher concentration (in words): 30 μM. How it is done: The in vitro anticancer effects of the presented compounds were assessed using the standard MTT [3-(4,5-dimethylthiazol2-yl)-2,5-diphenyltetrazolium bromide] assay on the following human cancer cell lines: cervical (HeLa and SiHa), breast (MCF-7 and MDA-MB-231) and ovarian cancer (A2780). The selectivity of the tested compounds was determined on murine embryonal fibroblast cells (NIH/3T3). The utilised cell lines were purchased from the European Collection of Cell Cultures (Salisbury, UK). The cells were cultivated in Eagle’s minimal essential medium supplemented with 10% fetal bovine serum, 1% non-essential amino acids and 1% antibiotic-antimycotic complex (penicillin, streptomycin, amphotericin B) at 37 °C in a humidified atmosphere containing 5% CO2. All media and supplements were purchased from Lonza Group Ltd. (Basel, Switzerland). The cancer cells were seeded into 96-well plates (5000 cells/well) and incubated overnight, and the test compounds were applied in two different concentrations (10 µM and 30 µM) and incubated for another 72 h under cell-culturing conditions. […] After 72 h, 20 µL of the 5 mg/mL MTT solution was added to each well, and the plates were incubated for 4 h. The medium was removed, and the formazan crystals produced by the mitochondrial activity were dissolved in dimethyl sulfoxide (DMSO) via shaking at 37 °C for 30 min. The absorbances were measured at 545 nm using a microplate reader (SPECTROStar Nano, BMG Labtech, Offenburg, Germany). The reference agent was cisplatin, which is a widely used cytotoxic agent. The IC50 values were calculated using sigmoid curve fitting. Two independent experiments were performed with five parallel wells for each condition. Calculations were performed using the GraphPad Prism 9 software (GraphPad Software Inc., San Diego, CA, USA).
On the technique in general: Tetrazolium assays rely on reduction of a dye to a coloured formazan, in cell work by metabolically active cells.

Data set [8] has as its system A2780 cells. As to the kind of experiment: MTT antiproliferative assay, A2780. Type of data set: cell-based. As to conditions: Homo sapiens; for inhibition at 10 µM: A2780, 10 μM; for inhibition at 10 µM / inhibition at 30 µM: 72 h, read-out: Growth inhibition (%) ± SEM; for inhibition at 30 µM: A2780, 30 μM. The method in brief: (§1)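 Cells seeded at 5000/well in EMEM with 10% FBS, treated next day at 10 µM and 30 µM for 72 h at 37 °C, 5% CO2. MTT added 4 h, formazan dissolved in DMSO, absorbance at 545 nm; IC50 by sigmoid fitting, two experiments, five wells each.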

For data set [9], the system named is HeLa cells. As to the kind of experiment: MTT antiproliferative assay, HeLa. Format: cell-based. The note with it: Homo sapiens, 72 h; for inhibition at 10 µM / inhibition at 30 µM: read-out: Growth inhibition (%) ± SEM. The method in brief: as §1
Data set [10] relates to SiHa cells. As to the kind of experiment: MTT antiproliferative assay, SiHa. Format: cell-based. As to conditions: Homo sapiens, 72 h; for inhibition at 10 µM / inhibition at 30 µM: read-out: Growth inhibition (%) ± SEM. The method, boiled down:
as §1

Data set [11] deals with MDA-MB-231 cells. As to the kind of experiment: MTT antiproliferative assay, MDA-MB-231. Type of data set: cell-based. The note with it: Homo sapiens; for inhibition at 10 µM: MDA-MB-231, 10 μM; for inhibition at 10 µM / inhibition at 30 µM: 72 h, read-out: Growth inhibition (%) ± SEM; for inhibition at 30 µM: MDA-MB-231, 30 μM. The method in brief: as §1
Data set [12] relates to NIH/3T3 fibroblast cells. As to the kind of experiment: MTT assay on non-malignant fibroblasts (selectivity). Type of data set: cell-based, murine. As to conditions: Mus musculus, NIH3T3; for inhibition at 10 µM: NIH/3T3, 10 μM; for inhibition at 10 µM / inhibition at 30 µM: 72 h, read-out: Growth inhibition (%) ± SEM; for inhibition at 30 µM: NIH/3T3, 30 μM. The method in brief:
as §1

For data set [13], the system named is MCF-7 cells. As to the kind of experiment: MTT antiproliferative assay, MCF-7. Format: cell-based. The note with it: Homo sapiens, MCF7; for inhibition at 10 µM: MCF-7, 10 μM; for inhibition at 10 µM / inhibition at 30 µM: 72 h, read-out: Growth inhibition (%) ± SEM; for inhibition at 30 µM: MCF-7, 30 μM. The method in brief:
as §1

Read-outs that look alike come from different tables or passages of the source. Some results are limits rather than exact numbers.

For `N.N.[Cl][Pt][Cl]` [Cisplatin, cisplatin], the “Growth inhibition (%) ± SEM” value is reported as 73.88 ± 1.63% in the data set with NIH/3T3 fibroblast cells [1] (NIH/3T3, 10 μM); 97.10 ± 0.15% with NIH/3T3 fibroblast cells [1] (NIH/3T3, 30 μM); 83.57 ± 1.21% with A2780 cells [2] (A2780, 10 μM); 95.02 ± 0.28% in the data set on A2780 cells [2] (A2780, 30 μM); 42.61 ± 2.33% with HeLa cells [3] (10 μM); 99.93 ± 0.26% in the data set on HeLa cells [3] (30 μM). Moreover, the “Growth inhibition (%) ± SEM” value in the data set on MCF-7 cells [4] (MCF-7, 10 μM) was 53.03 ± 2.29%; with MCF-7 cells [4] (MCF-7, 30 μM) it was 86.90 ± 1.22%; with SiHa cells [5] (10 μM), 60.98 ± 0.92%; with SiHa cells [5] (30 μM) it was 88.95 ± 0.53%; with MDA-MB-231 cells [6] (MDA-MB-231, 10 μM), 67.51 ± 1.01%; in the data set on MDA-MB-231 cells [6] (MDA-MB-231, 30 μM) it was 87.75 ± 1.10%.
Broadly, the inhibition is the relative decrease from the control value, in per cent. The term melting point denotes the temperature of the solid-liquid transition. Compound `COC(=O)[C@]1(C)CCC[C@@]2(C)[C@@H]3CC[C@@]4(CN=[N+]=[N-])C[C@]3(CC[C@@H]21)C[C@H]4O` [Compound 20, (4R,4aS,6aR,8R,9S,11aR,11bS)-Methyl 9-(azidomethyl)-8-hydroxy-4,11b-dimethyltetradecahydro-6a,9-methanocyclohepta[a]naphthalene-4-carboxylate] displayed a melting point of 72 to 74 °C. For the same compound, the “antiproliferative action at higher concentration (in words)” value (“antiproliferative action” below) in data set [7] is “no substantial action”. Besides, in the data set with A2780 cells [8], the inhibition at 10 µM is under 20% and the inhibition at 30 µM amounted to 27 ± 2.25%. Besides, in the data set with HeLa cells [9], the inhibition at 10 µM is under 20% and the inhibition at 30 µM is under 20%. Further, in the data set on SiHa cells [10], the inhibition at 10 µM is under 20% and the inhibition at 30 µM is under 20%. Moreover, in the data set with MDA-MB-231 cells [11], the inhibition at 10 µM is under 20% and the inhibition at 30 µM is under 20%. In the data set with NIH/3T3 fibroblast cells [12], the inhibition at 10 µM was under 20% and the inhibition at 30 µM was under 20%. For the same compound, in the data set on MCF-7 cells [13], the inhibition at 10 µM was under 20% and the inhibition at 30 µM amounted to 30.7 ± 0.93%.
By IC50 is commonly meant the point on the concentration scale where inhibition reaches its midpoint. In turn, `COC(=O)[C@]1(C)CCC[C@@]2(C)[C@@H]3CC[C@@]4(CO)C[C@]3(CC[C@@H]21)C[C@H]4N[C@@H](C)c1ccc2ccccc2c1` [Compound 16, (4R,4aS,6aR,8R,9R,11aR,11bS)-Methyl 9-(hydroxymethyl)-4,11b-dimethyl-8-(((S)-1-(naphthalen-2-yl)ethyl)amino)tetradecahydro-6a,9-methanocyclohepta[a]naphthalene-4-carboxylate] showed a melting point of 105 to 108 °C. The same compound returned an IC50 in data set [7] (Homo sapiens, range over the five cancer cell lines) of 3.44 to 6.33 µM. Also, in the data set on A2780 cells [8] (A2780, 72 h, read-out: calculated IC50), the 50% inhibitory concentration (IC50) is 4.43 µM. In addition, in the data set on A2780 cells [8], the inhibition at 10 µM was 97.6 ± 2.81% and the inhibition at 30 µM is 100.3 ± 0.57%. In the data set with HeLa cells [9], the inhibition at 10 µM stood at 55.4 ± 2.81% and the inhibition at 30 µM is 95.7 ± 1.12%. The concentration for half-maximal inhibition (IC50) in the data set with HeLa cells [9] (read-out: calculated IC50) is 3.4 µM. Moreover, in the data set on SiHa cells [10], the inhibition at 10 µM was found to be 80 ± 1.41% and the inhibition at 30 µM turned out to be 89.4 ± 1.03%. For the same compound, the half-maximal inhibitory concentration (IC50) in the data set on SiHa cells [10] (read-out: calculated IC50) is 6.33 µM. The 50% inhibitory concentration (IC50) in the data set with MDA-MB-231 cells [11] (MDA-MB-231, 72 h, read-out: calculated IC50) is 4.51 µM. In the data set with MDA-MB-231 cells [11], the inhibition at 10 µM came out at 84.4 ± 2.92% and the inhibition at 30 µM was 93.6 ± 1.23%. For the same compound, in the data set on NIH/3T3 fibroblast cells [12], the inhibition at 10 µM was under 20% and the inhibition at 30 µM worked out at 96.83 ± 0.66%. Moreover, the IC50 in the data set on NIH/3T3 fibroblast cells [12] (NIH/3T3, 72 h, read-out: calculated IC50) was 17.4 µM. In the data set with MCF-7 cells [13], the inhibition at 10 µM amounted to 81 ± 2.03% and the inhibition at 30 µM came out at 97.95 ± 0.56%. In the data set with MCF-7 cells [13] (MCF-7, 72 h, read-out: calculated IC50), the IC50 was 3.88 µM.
`COC(=O)[C@]1(C)CCC[C@@]2(C)[C@@H]3CC[C@@]4(CO)C[C@]3(CC[C@@H]21)C[C@H]4N` [Compound 6, (4R,4aS,6aR,8R,9R,11aR,11bS)-Methyl 8-amino-9-(hydroxymethyl)-4,11b-dimethyltetradecahydro-6a,9-methanocyclohepta[a]naphthalene-4-carboxylate] displayed a melting point of 166 to 170 °C. In addition, the “antiproliferative action” value in [7] is “pronounced cell growth inhibition”. Also, in the data set with A2780 cells [8], the inhibition at 10 µM is 24.8 ± 5.19% and the inhibition at 30 µM is 82.5 ± 4.66%. In the data set on HeLa cells [9], the inhibition at 10 µM was 23.2 ± 1.97% and the inhibition at 30 µM is 93.94 ± 0.55%. For the same compound, in the data set on SiHa cells [10], the inhibition at 10 µM is under 20% and the inhibition at 30 µM was found to be 68.24 ± 0.61%. In the data set with MDA-MB-231 cells [11], the inhibition at 10 µM turned out to be 25.8 ± 2.49% and the inhibition at 30 µM worked out at 97.6 ± 0.67%. For the same compound, in the data set on NIH/3T3 fibroblast cells [12], the inhibition at 10 µM was found to be 22.1 ± 1.54% and the inhibition at 30 µM worked out at 98.27 ± 0.37%. For the same compound, in the data set with MCF-7 cells [13], the inhibition at 10 µM came to 36.4 ± 3.48% and the inhibition at 30 µM is 98.58 ± 0.22%.
In turn, `COC(=O)[C@]1(C)CCC[C@@]2(C)[C@@H]3CC[C@@]4(CO)C[C@]3(CC[C@@H]21)C[C@@H]4N` [Compound 7, (4R,4aS,6aR,8S,9R,11aR,11bS)-Methyl 8-amino-9-(hydroxymethyl)-4,11b-dimethyltetradecahydro-6a,9-methanocyclohepta[a]naphthalene-4-carboxylate] gave a melting point of 127 to 130 °C. Moreover, the “antiproliferative action” value in data set [7] is “pronounced cell growth inhibition”. In addition, in the data set with A2780 cells [8], the inhibition at 10 µM was determined as 27 ± 4.31% and the inhibition at 30 µM came to 91.6 ± 1.97%. Also, in the data set on HeLa cells [9], the inhibition at 10 µM was determined as 24.9 ± 2.49% and the inhibition at 30 µM was 96.89 ± 0.54%. In addition, in the data set with SiHa cells [10], the inhibition at 10 µM is under 20% and the inhibition at 30 µM was 88.6 ± 2.01%. Also, in the data set on MDA-MB-231 cells [11], the inhibition at 10 µM worked out at 28 ± 1.84% and the inhibition at 30 µM came out at 97.67 ± 0.67%. In the data set with NIH/3T3 fibroblast cells [12], the inhibition at 10 µM was under 20% and the inhibition at 30 µM was determined as 97.76 ± 0.7%. Besides, in the data set on MCF-7 cells [13], the inhibition at 10 µM came out at 43.1 ± 3.79% and the inhibition at 30 µM was found to be 99.33 ± 0.24%.
